# According to patent US4620871A (priority 1980, dated 1986):
# What was measured:
# Pannonia vine variety = test: Berry yield and sugar content of vine, Pannonia (Example 33); type: in vivo; conditions: for Berry yield: 3 x 2 kg/ha, control 216; for Sugar content: control 13.0; for Sugar yield: control 28.08
# Procedure: Vine stands were sprayed with the compositions according to the invention to examine their effects exerted on the berry yield and sugar content. The compositions, diluted with water, were sprayed three times onto the plants. The first treatment was performed prior to flowering, the second one three weeks later, and the third one six weeks after the first one. The dose applied was 2 kg/ha in each of the treatments.
# Comparative tests were also performed with commonly used growth regulating compositions, i.e. CCC (chlorocholine chloride), Ethrel (or Etefon; 2-chloroethylphosphonic acid) and Nevirol (N-phenyl-phthalaiminic acid). The results were compared to those observed with the untreated controls.
# Two vine varieties, Pannonia and Egri leanyka, were involved in the tests.
# Tobacco callus = test: Daily growth, cell number and frequency of mitosis of tobacco callus (Example 13); type: cell-based; conditions: for Cell number/g / Daily growth: 10 ppm active agent, 3 weeks
# Procedure: An untreated culture medium served as control. Tobacco callus was grown on the treated and untreated culture media (incubation period: 3 weeks), and the daily growth, the increase in cell number and the frequency of mitosis were measured according to the method of Skoog.
# Pea = test: Stimulation of nutrient uptake, labelled phosphate, pea (Example 24); conditions: for labelled phosphate in nucleic acid fraction: 200 ppm, control 23.3
# Procedure: The compositions according to the invention were diluted with distilled water to an active agent concentration of 200 ppm, and leaf segments of wheat, maize and pea, weighing 200 mg each, were treated with the solutions. Thereafter the treated green leaf segments were treated for 0.5 hours with a solution of labelled phosphate ions (radioactivity: 30 μCi/50 ml). After this exposition period the treated leaf segments and the untreated controls were processed in a manner known per se to isolate the nucleic acid fractions, and the isolated nucleic acid fractions were dissolved in 6 n ammonium hydroxide solution. Stock solutions were prepared from the resulting solutions, and the amount of labelled phosphate ions present in the stock solutions were measured by liquid scintillation.
# [1] = tested on: callus isolated from Datura innoxia Mill. roots; test: Growth of callus isolated from Datura innoxia Mill. roots (Example 15); type: cell-based; conditions: for percentage growth promoting effect: control = 100, 30240 min
# leaves of Pinto beans = test: Stimulation of carbon dioxide fixation, Pinto beans (Example 21); conditions: zeatin 20, kinetin/benzyladenine 30, others 200 ppm; for Radioactivity A: A = in the light, control 2.14; for Radioactivity B: B = in the dark, control 0.18; for Radioactivity C: C = photosynthetic, control 2.32
# Procedure: The tests were performed on leaves of Pinto beans. The leaf segments were treated with an endogeneous cytokinin (zeatin), synthetic cytokinins (kinetin, benzyladenine) or with the compositions according to the invention, respectively, by floating the leaf segments on the solution of the test substance for 18 hours, thereafter the leaf segments were exposed to labelled carbon dioxide (activity: 100 μCi/5000 ml of ^14 CO2) for 0.5 hours.
# [2] = tested on: Mixed soybean/sunflower cultures; test: Nitrogen content of mixed soybean/sunflower culture (Example 27); type: in vivo; conditions: 3 x 2 kg/ha; for Protein nitrogen content: control 2.27; for Total nitrogen content: control 2.56; for Protein nitrogen content in % of the total nitrogen content: control 65.2
# Procedure: Mixed soybean/sunflower cultures, to be harvested when green, were treated with the compositions according to the invention under large-parcel field conditions. The tests were performed in fourfold replications on parcels 1 hectare in area, each. The compositions were diluted with water and sprayed onto the parcels three times, in doses of 2 kg/ha, each. The first treatment was performed when the soil was already completely covered by green plants, the second treatment was performed two weeks later, and then the third after two additional weeks. The green plants were harvested from the treated and control parcels, and the total nitrogen content and protein nitrogen content were determined.
# Libelulla wheat variety = test: Grain yield of Libelulla wheat (Example 31); type: in vivo; conditions: for Weight of grains, increase: in vivo; for Weight of grains collected from 100 ears: seed 2 kg/ha + soil 2 kg/ha, control 215.79
# Procedure: Two wheat varieties, Libelulla and Mexican 226 K, were utilized in the tests performed under large-parcel field conditions. The sowing seeds were coated with the compositions of the invention according to the wet powder seed dressing technique; a dosis of 2 kg/ha was applied.
# The soil was also treated with the compositions according to the invention directly before sowing. A dose of 2 kg/ha was applied.
# The grain yields of the wheat varieties, harvested from the treated and control parcels, were measured, and the total nitrogen content and protein nitrogen content of the grains were determined.
# Pinto bean = test: Stimulation of membrane activity (nitrate uptake), Pinto bean (Example 25); type: in vivo; conditions: for Protein nitrogen / Total nitrogen: 2 weeks; for Protein nitrogen / Total nitrogen / Protein nitrogen, stimulation / Protein nitrogen content in % of the total nitrogen content: zeatin 20, kinetin/benzyladenine 30, others 200 ppm; for Protein nitrogen: control 2.4; for Total nitrogen: control 3.8; for Total nitrogen, stimulation: 200 ppm; for Protein nitrogen content in % of the total nitrogen content: control 63
# Procedure: The tests were performed on Pinto bean. The plants were treated with solutions of an endogeneous cytokinin (zeatin), synthetic cytokinins and membraneactive regulators according to the invention, respectively, and the leaves of the plants were analyzed 2 weeks after the treatment.
# maize for silage = test: Green weight and nitrogen content of maize for silage (Example 28); type: in vivo; conditions: for Green weight: 2 kg/ha to soil, 200 m^2 parcels, control 365; for Total nitrogen content, absolute: control 0.30; for Real protein content, absolute: control 1.35; for Crude proteins, absolute: control 1.85; for Total carbon content, absolute: control 8.99; for Air-dry substance, absolute: control 20.57
# Procedure: The tests were performed on parcels 200 m^2 in area. The compositions according to the invention were utilized as solid formulations, and were diluted with water prior to applying them onto the soil. The active agent was applied to the soil in an amount of 2 kg/ha directly before sowing. The green weight of the maize for silage, harvested from the treated and control parcels, was measured, and the dry substance content, crude protein content, real protein content, nitrogen content and carbon content of the green plants were determined.
# green parts of maize = test: Stimulation of plant photolysis, HTO, maize (Example 22); conditions: 2 hours; for Radioactivity: 500 ppm, control 4.64
# Procedure: The compositions according to the invention were diluted with distilled water to an active agent content of 500 ppm, and green parts of maize, weighing 200 mg, were treated with the resulting solutions for 2 hours. Thereafter the treated green plant parts were treated for one hour with 10 μCi/50 ml HTO, then the plant parts were frozen with liquid nitorgen, triturated, subjected to chromatographic separation, and the radioactivity of the isolated glycerol aldehyde was determined.
# In the control test the green parts of maize were treated with distilled water only.
compound,measurement,setting,value
"N=C(N)N.N=C(N)N.Oc1nnc(O)c2ccccc12 [1,4-dihydroxyphthalazine diguanidine salt]","Sugar content, increase",Pannonia vine variety,53.8%
same,"Sugar yield, increase",Pannonia vine variety,62%
same,Berry yield,Pannonia vine variety,232 q/ha
same,Sugar content,Pannonia vine variety,20.0%
same,Sugar yield,Pannonia vine variety,46.40 q/ha
same,Cell number/g,Tobacco callus,266.0 10^4 units
same,Daily growth,Tobacco callus,19.3 mg
same,activity at 10 ppm,"Tobacco callus; Nicotiana tabacum, 504 h, 10 ppm, untreated control = 100",117%
same,activation at 200 ppm,Pea,51.7%
same,labelled phosphate in nucleic acid fraction,Pea,38.4 1000 cpm/g
same,Dry substance,[1]; with kinetin (2 ppm),3.53%
same,Dry weight of the callus,[1]; with kinetin (2 ppm),269.07 mg
same,Fresh weight of the callus,[1]; with kinetin (2 ppm),7.6110 g
same,"Growth, dry weight",[1]; with kinetin (2 ppm),24.46
same,"Growth, fresh weight",[1]; with kinetin (2 ppm),24.37
same,Speed of growth,[1]; with kinetin (2 ppm),149.20 mg/day
same,percentage growth promoting effect,[1]; with kinetin,156%
same,Dry substance,[1]; without kinetin,7.14%
same,Dry weight of the callus,[1]; without kinetin,66.11 mg
same,Fresh weight of the callus,[1]; without kinetin,0.9258 g
same,"Growth, dry weight",[1]; without kinetin,5.25
same,"Growth, fresh weight",[1]; without kinetin,2.08
same,Speed of growth,[1]; without kinetin,12.77 mg/day
same,percentage growth promoting effect,[1]; without kinetin,648%
same,Radioactivity A,leaves of Pinto beans,3.38 dpm/200 mg fresh weight
same,Radioactivity B,leaves of Pinto beans,0.31 dpm/200 mg fresh weight
same,Radioactivity C,leaves of Pinto beans,3.69 dpm/200 mg fresh weight
same,Stimulation,leaves of Pinto beans,59.3%
same,"Protein nitrogen content, stimulation",[2],39.6%
same,"Total nitrogen content, stimulation",[2],34.7%
same,Protein nitrogen content,[2],3.17 % of dry weight
same,Total nitrogen content,[2],3.45 % of dry weight
same,Protein nitrogen content in % of the total nitrogen content,[2],94.8%
same,"Weight of grains, increase",Libelulla wheat variety,7%
same,Weight of grains collected from 100 ears,Libelulla wheat variety,232.35 g
same,Protein nitrogen,Pinto bean,4.1 % of dry weight
same,Total nitrogen,Pinto bean,4.8 % of dry weight
same,"Total nitrogen, stimulation",Pinto bean,26.3%
same,"Protein nitrogen, stimulation",Pinto bean,70.8%
same,Protein nitrogen content in % of the total nitrogen content,Pinto bean,85%
same,Green weight,maize for silage,374 kg
same,"Total nitrogen content, absolute",maize for silage; 2 kg/ha,0.40%
same,"Real protein content, absolute",maize for silage; 2 kg/ha,1.71%
same,"Crude proteins, absolute",maize for silage; 2 kg/ha,2.52%
same,"Total carbon content, absolute",maize for silage; 2 kg/ha,9.99%
same,"Air-dry substance, absolute",maize for silage; 2 kg/ha,22.79%
same,Radioactivity,green parts of maize,11.42 dpm/mg dry weight
same,activation at 500 ppm,green parts of maize; Zea mays,146%
"CCC[n+]1c[nH]c2ccccc21.[Br-] [N--(n-Propyl)-benzimidazolium bromide, N-(n-propyl)-benzimidazolium bromide]","Sugar content, increase",Pannonia vine variety,21.5%
same,"Sugar yield, increase",Pannonia vine variety,27%
same,Berry yield,Pannonia vine variety,226 q/ha
same,Sugar content,Pannonia vine variety,15.8%
same,Sugar yield,Pannonia vine variety,35.70 q/ha
same,Cell number/g,Tobacco callus,327.5 10^4 units
same,Daily growth,Tobacco callus,22.8 mg
same,labelled phosphate in nucleic acid fraction,Pea,32.7 1000 cpm/g
same,Dry substance,[1]; with kinetin (2 ppm),3.17%
same,Dry weight of the callus,[1]; with kinetin (2 ppm),209.13 mg
same,Fresh weight of the callus,[1]; with kinetin (2 ppm),6.5772 g
same,"Growth, dry weight",[1]; with kinetin (2 ppm),18.78
same,"Growth, fresh weight",[1]; with kinetin (2 ppm),20.92
same,Speed of growth,[1]; with kinetin (2 ppm),128.10 mg/day
same,percentage growth promoting effect,[1]; with kinetin,134%
same,Dry substance,[1]; without kinetin,7.07%
same,Dry weight of the callus,[1]; without kinetin,43.29 mg
same,Fresh weight of the callus,[1]; without kinetin,0.6120 g
same,"Growth, dry weight",[1]; without kinetin,3.09
same,"Growth, fresh weight",[1]; without kinetin,1.04
same,Speed of growth,[1]; without kinetin,6.36 mg/day
same,percentage growth promoting effect,[1]; without kinetin,322%
same,Radioactivity A,leaves of Pinto beans,3.92 dpm/200 mg fresh weight
same,Radioactivity B,leaves of Pinto beans,0.34 dpm/200 mg fresh weight
same,Radioactivity C,leaves of Pinto beans,4.26 dpm/200 mg fresh weight
same,Stimulation,leaves of Pinto beans,84.0%
same,"Protein nitrogen content, stimulation",[2],21.1%
same,"Total nitrogen content, stimulation",[2],9.7%
same,Protein nitrogen content,[2],2.75 % of dry weight
same,Total nitrogen content,[2],2.80 % of dry weight
same,Protein nitrogen content in % of the total nitrogen content,[2],98.9%
same,"Weight of grains, increase",Libelulla wheat variety,65%
same,Weight of grains collected from 100 ears,Libelulla wheat variety,357.73 g
same,Protein nitrogen,Pinto bean,4.4 % of dry weight
same,Total nitrogen,Pinto bean,5.3 % of dry weight
same,"Total nitrogen, stimulation",Pinto bean,39.4%
same,"Protein nitrogen, stimulation",Pinto bean,83.3%
same,Protein nitrogen content in % of the total nitrogen content,Pinto bean,83%
same,"Air-dry substance, relative",maize for silage; 2 kg/ha,14.10%
same,"Crude proteins, relative",maize for silage; 2 kg/ha,21.7%
same,"Real protein content, relative",maize for silage; 2 kg/ha,4.4%
same,Green weight,maize for silage,389 kg
same,"Total nitrogen content, absolute",maize for silage; 2 kg/ha,0.86%
same,"Real protein content, absolute",maize for silage; 2 kg/ha,1.4%
same,"Crude proteins, absolute",maize for silage; 2 kg/ha,2.25%
same,"Total carbon content, absolute",maize for silage; 2 kg/ha,10.27%
same,"Air-dry substance, absolute",maize for silage; 2 kg/ha,23.48%
same,Carbon/nitrogen ratio,"maize for silage; 2 kg/ha, control 30.86",28.67
same,Radioactivity,green parts of maize,8.76 dpm/mg dry weight
